Measurements taken from patent US20190321291A1, “3D Printing and Drug Delivery” (Biogelx Limited, priority 2016, published 2019).
Where “and” joins values, the source holds several entries; their conditions need not be identical. Equal entries are not always repeated.

Assay: Drug release assay from Fmoc-FF/S hydrogel into PBS release buffer, HPLC analysis
Assay type: physicochemical
Settings: for duration of sustained release from the gel: 7-day study; for release profile from the hydrogel compared with control PBS solution: Fmoc-FF/S hydrogel; for time over which significant drug concentration continued to be released: gel
Experimental: (§1) An 1100 Series high-performance liquid chromatography pump (Agilent, USA) was used for the analysis which was performed using acetonitrile with 0.1% TFA and water with 0.1% TFA. […] This concentration was kept constant until 16 mins; after that the gradient was decreased, reaching 40% (v/v) acetonitrile in water at 19 mins. The data was then processed manually using the software ‘Agilent Chemstation.’
The triplicate samples of release buffer were analysed by HPLC, and for the peaks corresponding to each model drug compound the peak area was measured. The average peak area was recorded, and using a standard curve prepared for each compound the concentration of each was determined.
At each of the specified time points the release buffer remaining in the wells was transferred to HPLC vials and stored at 4° C. until HPLC analysis was performed.
as §1, with “mins when” for “mins; after that”, “decreased to” for “decreased, reaching”
The triplicate samples of release buffer were analysed by HPLC, and for the peaks corresponding to each model drug compound the peak area was measured. The average peak area was recorded, and using standard curve prepared for each compound the concentration of each was determined.

[1] = 30 min, 2 mM control solution of drug in PBS, release buffer PBS 37° C.
[2] = 30 min, drug in Fmoc-FF/S gel, release buffer PBS 37° C.

duration of sustained release from the gel (Fmoc-FF/S gel)	release time from the control insert (control solution in PBS) [h]	release profile from the hydrogel compared with control PBS solution	Concentration (ug/mL) Control [1] [µg/mL]	Concentration (ug/mL) Gel [2] [µg/mL]	Concentration (ug/mL) Gel (3 h, Fmoc-FF/S gel) [µg/mL]	Concentration (ug/mL) Control (3 h, control solution in PBS) [µg/mL]	Concentration (ug/mL) Gel (6 h, Fmoc-FF/S gel) [µg/mL]	Concentration (ug/mL) Control (6 h, control solution in PBS) [µg/mL]	Concentration (ug/mL) Gel (9 h, Fmoc-FF/S gel) [µg/mL]	Concentration (ug/mL) Control (9 h, control solution in PBS) [µg/mL]	Concentration (ug/mL) Gel (24 h, Fmoc-FF/S gel) [µg/mL]	Concentration (ug/mL) Control (24 h, control solution in PBS) [µg/mL]	Concentration (ug/mL) Gel (48 h, Fmoc-FF/S gel) [µg/mL]	Concentration (ug/mL) Control (48 h, control solution in PBS) [µg/mL]	Concentration (ug/mL) Gel (72 h, Fmoc-FF/S gel) [µg/mL]	Concentration (ug/mL) Control (72 h, control solution in PBS) [µg/mL]	Concentration (ug/mL) Gel (5 d, Fmoc-FF/S gel) [µg/mL]	Concentration (ug/mL) Control (5 d, control solution in PBS) [µg/mL]	Concentration (ug/mL) Gel (7 d, Fmoc-FF/S gel) [µg/mL]	SMILES	also measured
7 days	9	–	–	–	–	–	–	–	–	–	–	–	–	–	–	–	–	–	–	C=C[C@H]1C[N@]2CC[C@H]1C[C@@H]2[C@@H](O)c1ccnc2ccc(OC)cc12 [Quinidine]	drug still present in the remaining gel residue at the end of the experiment (10 mM Fmoc-FF/S gel, HPLC, end of 7-day study): 4.5%; total release corresponding to control results (control solution in PBS): 85%
–	–	slower	–	–	–	–	–	–	–	–	–	–	–	–	–	–	–	–	–	CC[C@H](C)C(=O)O[C@H]1C[C@H](O)C=C2C=C[C@H](C)[C@H](CC[C@@H](O)C[C@@H](O)CC(=O)O)[C@H]21 [Pravastatin]	–
–	–	slower	–	–	–	–	–	–	–	–	–	–	–	–	–	–	–	–	–	CC(C)n1c(/C=C/[C@H](O)C[C@H](O)CC(=O)O)c(-c2ccc(F)cc2)c2ccccc21 (racemic) [Fluvastatin]	–
5 days	9	–	10.34	0.67	9.08	22.71	6.37	0.90	2.98	0.07	5.15	0	1.49	0	0.27	0	0.11	0	0	CC(C)NCC(O)COc1ccc(CCOCC2CC2)cc1 (stereo not drawn) [Betaxolol]	release time from the gel (10 mM Fmoc-FF/S gel): 5 days; Concentration (ug/mL) Control (7 d, control solution in PBS): 0 µg/mL
> 7 days and 7 days	–	altered significantly	17.8	0.03	7.02	36.4	5.38	0.06	4.61	0	7.78	0	7.49	0	4.02	0	3.81	0	2.05	CC(C)NCC(O)COc1cccc2ccccc12 (stereo not drawn) [Propranolol]	Concentration (ug/mL) Control (7 d, control solution in PBS): 0 µg/mL; time by which drug release was below measurable limits (control): ≤ 9 h; time over which significant drug concentration continued to be released (concentration of the peptides 10 mM): ≥ 72 h; time over which significant drug concentration continued to be released (concentration of the peptides 40 mM): ≥ 72 h

SMILES	duration of sustained release from the gel (Fmoc-FF/S gel)	release time from the control insert (control solution in PBS) [h]	release profile from the hydrogel compared with control PBS solution	Concentration (ug/mL) Control [1] [µg/mL]	Concentration (ug/mL) Gel [2] [µg/mL]	Concentration (ug/mL) Gel (3 h, Fmoc-FF/S gel) [µg/mL]	Concentration (ug/mL) Control (3 h, control solution in PBS) [µg/mL]	Concentration (ug/mL) Gel (6 h, Fmoc-FF/S gel) [µg/mL]	Concentration (ug/mL) Control (6 h, control solution in PBS) [µg/mL]	Concentration (ug/mL) Gel (9 h, Fmoc-FF/S gel) [µg/mL]	Concentration (ug/mL) Control (9 h, control solution in PBS) [µg/mL]	Concentration (ug/mL) Gel (24 h, Fmoc-FF/S gel) [µg/mL]	Concentration (ug/mL) Control (24 h, control solution in PBS) [µg/mL]	Concentration (ug/mL) Gel (48 h, Fmoc-FF/S gel) [µg/mL]	Concentration (ug/mL) Control (48 h, control solution in PBS) [µg/mL]	Concentration (ug/mL) Gel (72 h, Fmoc-FF/S gel) [µg/mL]	Concentration (ug/mL) Control (72 h, control solution in PBS) [µg/mL]	Concentration (ug/mL) Gel (5 d, Fmoc-FF/S gel) [µg/mL]	Concentration (ug/mL) Control (5 d, control solution in PBS) [µg/mL]	Concentration (ug/mL) Gel (7 d, Fmoc-FF/S gel) [µg/mL]	also measured
CC(C)NCC(O)c1ccc(NS(C)(=O)=O)cc1 (stereo not drawn) [Sotalol]	–	–	slower	–	–	–	–	–	–	–	–	–	–	–	–	–	–	–	–	–	–
